The conditions of series [1]: 24° C.; cited from earlier work.
Series [2] in a line: Flow rheometry test of PCL-PVAc-PEG/Vitamin E composites. As to conditions: flow mode, 20±1° C., shear stress 0.60 to 59.68 Pa. In kind it is physicochemical. The procedure:
Rheological Characterization. […] The viscoelastic properties of the composites were evaluated by measuring their shear rate under an applied shear stress. The viscous response, or the loss modulus, is the loss of the rigid structure of the system as a result of the applied stress over strain (G″). The recovery of the polymeric dispersions when lifting the applied stress is known as the elastic (G′) or storage modulus. Tangent of the phase angle (tan δ) is the ratio of the viscous property of the dispersion (G″) to its elastic property (G′). Tan δ is a measure of the relative contribution of the viscous component to the solid characteristics of the material. Materials behave increasingly like a liquid as the tan δ value increases above 1, whereas they behave increasingly like a gel as the tan δ value decreases below 1 [13].
The characterization of the rheological properties of vitamin E and PCL-PVAc-PEG/Vitamin E composites was carried out with an Advanced AR 2000 controlled stress/controlled rate rheometer (TA Instruments, New Castle, Del., USA) with a 2o, 40 mm cone-plate geometry and a 61 μm gap between the plates. Approximately 0.6 mL of each sample was carefully placed on the lower plate. […]
Flow Rheometry Test. The flow behavior and complex viscosity (η) of the PCL-PVAc-PEG/Vitamin E composites were measured in flow mode at 20±1° C. under an applied shear stress from 0.60 to 59.68 Pa. […]

Series [3] is described as follows: Texture analysis of PCL-PVAc-PEG/Vitamin E composites (hardness, adhesiveness, cohesiveness). In kind it is physicochemical. Conditions: probe compression 2 mm/s to 4 mm depth, 20±1° C. The procedure:
Texture Analysis. Texture analysis is a technique that has been widely utilized for the mechanical characterization of food and pharmaceutical products. The mechanical characteristics of the PCL-PVAc-PEG/Vitamin E composites were determined by using a TA-XT plus texture analyzer (Texture Technologies Corp and Stable Micro Systems, Ltd, Scarsdale, N.Y., USA) equipped with a 50 kg load cell and fitted with a 35 mm flat-faced stainless-steel cylindrical probe. Briefly, 10 g sample of each composite was placed in a 25 mL jacketed reaction beaker. Before analysis, air bubbles were removed from the samples by maintaining the reaction beaker at 80° C. for approximately 30 minutes. Samples were then allowed to equilibrate to room temperature for 24 h. After equilibration, samples were tested for their texture properties by compressing the probe into the surface of each sample at a rate of 2 mm/s to a depth of 4 mm, after which the probe was retracted at a rate of 2 mm/s. Composite Hardness, adhesiveness, and cohesiveness were then estimated from the generated force-time plots. At least three replicate analyses were carried out for each composite using a freshly prepared sample. Data collection and calculation were determined by the Texture Exponent 6.1.7.0 software package.
Texture Analysis. Texture profile analysis (TPA) of the PCL-PVAc-PEG/Vitamin E composites was carried out to study their compressional flow properties. It provided valuable information about the impact of PCL-PVAc-PEG load on the hardness, adhesiveness, and cohesiveness of the composites (FIG. 9). These characteristics quantify sample deformation under compression. Hardness describes the stress/work required to remove the sample from the container and to subsequently apply it to the site of application. It is defined as the force required to acquire a given deformation which is the same as the maximum peak force during compression. Hardness should be low in order to allow the material to be easily removed from the container. […]

The text below walks through data of US20200354562A1, “FILMS AND COMPOSITES AND METHODS OF PRODUCTION AND USE” (Texas Tech University System, priority 2018, published 2020).

Turning to `Cc1c(C)c2c(c(C)c1O)CCC(C)(CCCC(C)CCCC(C)CCCC(C)C)O2` (racemic) [pure vitamin E, DL-α-Tocopherol], in series [1], the reported viscosity is 2480 centipoise. This compound yielded a Viscosity in series [2] of 5.9 Pa·s. Further, in series [3], the Adhesiveness turned out to be 0.01 kg·s, the Cohesiveness stood at 0.02 kg·s and the Hardness came out at 0.021 kg.
